From ChEMBL document CHEMBL5726194, “Benzenesulfonamide compounds and their use as therapeutic agents” (2017)

Assay: Electrophysiological Assay : The following patch voltage clamp electrophysiology studies were performed on representative compounds of the invention using human embryonic kidney cells (HEK), permanently transfected with an expression vector containing the full-length cDNA coding for the desired human sodium channel α-subunit, grown in culture media containing 10% FBS, 1% PSG, and 0.5 mg/mL G418 at 37° C. with 5% CO2. […] Nav1.7 and Nav1.5 cDNAs (NM_002977 and AC137587; SCN5A, respectively) were stably expressed in HEK-293 cells. The β1 subunit was coexpressed only in the Nav1.7 cell line.
Assay type: cell-based

SMILES: O=S(=O)(Nc1ncns1)c1cc(F)c(OC[C@@H]2CNCC[C@H]2c2ccc(F)c(C(F)(F)F)c2)cc1F (relative stereo)
- IC50: 71 nM
